Experimental data as given in patent US20140039044A1, “Hydroxylated Polymethoxyflavone Compositions” (WLLGEN, INC., priority 2006, published 2014).
Where two headings read alike, the source gives them in different places.

Experiments:
Format in all cases: cell-based, human
HT-29 cells [1] = assay: Cell cycle distribution by flow cytometry; settings: for Cell Cycle Distribution G0/G1 / Cell Cycle Distribution G2/M / Cell Cycle Distribution S: 24 h
Protocol: (§1) The human cancer cells (2×10^5) were cultured in 60-mm Petri dishes and incubated for 24 h. After treated with test compounds for 24 h, the cells were then harvested, washed with PBS resuspended in 200 μL of PBS, and fixed in 800 μL of iced 100% ethanol at −20° C. After being left to stand overnight, the cell pellets were collected by centrifugation, resuspended in 1 mL of hypotonic buffer (0.5% Triton X-100 in PBS and 0.5 μg/mL RNase) and incubated at 37° C. for 30 min. Next, 1 mL of propidium iodide solution (50 μg/mL) was added, and the mixture was allowed to stand on ice for 30 min. Fluorescence emitted from the propidium iodide-DNA complex was quantitated after excitation of the fluorescent dye by FACScan cytometry (Becton Dickinson, San Jose, Calif.).
(§2) Compounds A-K were evaluated in terms of their effects in arresting cell cycle progression by observing cell cycle phase distribution in cells treated with the compounds. Cells were treated with 5, 10, 25, 50, and 100 μM of one of compound A-K or DMSO (control) for 24 h and subjected to flow cytometric analysis after staining their DNA, as described above.
Similar cell cycle phase distribution studies were performed in AGS, COLO205, and HT-29 cells in response to individual PMFs, with results reported in Tables 11, 12 and 13, respectively.

HL-60 cells [2] = assay: Cell cycle distribution by flow cytometry; settings: 24 h
Protocol: as §1
The effects of the hydrolyzed PMF-enriched compositions, nobiletin and 70% PMF OPE on cell cycle distribution were studied, following the procedures described in Section 8.4. Results for cell cycle distribution in HL-60 cells, COLO205 cells and AGS cells are provided in Table 5, Table 6 and Table 7, respectively. […] In HL-60 cells, G2/M arrest predominated in cells treated with 6N PMF concentrations ≧5 μM and with 1N PMF concentrations ≧25 μM.
as §2

HT-29 cells [3] = assay: Apoptotic ratio by propidium iodide flow cytometry (AC50); settings: Homo sapiens, read-out: Apoptosis-inducing AC50
Protocol: as §1
(§3) The PMF compounds were assayed in vitro for cell growth inhibition and for their ability to induce apoptosis in various human cancer cells, including HL-60, AGS, COLO 205, and HT-29 cells, using methods described in Section 8.4 above. Antiproliferative (IC50) and apoptosis-inducing activity (AC50) of PMFs in the HL-60, AGS, COLO 205, and HT-29 cells are reported in Table 9, where *P<0.05, **P<0.01 and ***P<0.001 indicate statistically significant differences from the control group.

AGS cells = assay: as above; settings: Homo sapiens, AGS cells
Protocol: as §1
(§4) 1 N PMF and 6 N PMF compositions containing hydroxylated PMFs, prepared as described in Section 8.3 above, 70% PMF OPE and 5,6,7,8,3′,4′-hexamethoxyflavone (nobiletin) were tested for antiproliferative activity and apoptosis-inducing activity in HL-60, AGS and COLO205 cells as described in Section 8.4 above. Antiproliferative and apoptosis-inducing activities were derived as IC50 values and AC50, values, respectively, where AC50 is the concentration required for 50% apoptosis.
as §3

HL-60 cells [4] = assay: as above; settings: Homo sapiens, HL-60 cells
Protocol: as §1, §4, §3

COLO205 cells = assay: as above; settings: Homo sapiens, COLO 205, COLO205 cells
Protocol: as §1, §4, §3

[5] = Table 4, read-out: Apoptosis-inducing AC50 (concentration required for 50% apoptosis)
[6] = read-out: Apoptosis-inducing AC50

SMILES: COc1ccc(-c2cc(=O)c3c(OC)c(OC)c(OC)c(OC)c3o2)cc1OC [Compound A, 5,6,7,8,3′,4′-hexamethoxyflavone, reference compound]
- Cell Cycle Distribution G0/G1 (HT-29 cells [1]; 5 μM): 63.67 ± 0.14
- Cell Cycle Distribution G2/M (HT-29 cells [1]; 5 μM): 8.22 ± 0.37
- Cell Cycle Distribution S (HT-29 cells [1]; 5 μM): 28.12 ± 0.52
- Cell Cycle Distribution G0/G1 (HT-29 cells [1]; 10 μM): 66.57 ± 0.66
- Cell Cycle Distribution G2/M (HT-29 cells [1]; 10 μM): 7.45 ± 0.28
- Cell Cycle Distribution S (HT-29 cells [1]; 10 μM): 26.98 ± 0.94
- Cell Cycle Distribution G0/G1 (HT-29 cells [1]; 25 μM): 69.67 ± 1.15
- Cell Cycle Distribution G2/M (HT-29 cells [1]; 25 μM): 7.58 ± 0.00
- Cell Cycle Distribution S (HT-29 cells [1]; 25 μM): 22.76 ± 1.15
- Cell Cycle Distribution G0/G1 (HT-29 cells [1]; 50 μM): 83.26 ± 0.46
- Cell Cycle Distribution G2/M (HT-29 cells [1]; 50 μM): 4.97 ± 0.67
- Cell Cycle Distribution S (HT-29 cells [1]; 50 μM): 11.79 ± 1.13
- Cell Cycle Distribution G0/G1 (HT-29 cells [1]; 100 μM): 89.49 ± 0.57
- Cell Cycle Distribution G2/M (HT-29 cells [1]; 100 μM): 5.60 ± 0.57
- Cell Cycle Distribution S (HT-29 cells [1]; 100 μM): 4.92 ± 0.00
- Cell cycle arrest, in words (HT-29 cells [1]; 5-100 μM, 24 h exposure): significant accumulation of cells in G1 phase
- Cell Cycle Distribution G0/G1 (HL-60 cells [2]; 5 μM, Table 5): 45.81 ± 0.16
- Cell Cycle Distribution G2/M (HL-60 cells [2]; 5 μM, Table 5): 0.02 ± 0.01
- Cell Cycle Distribution S (HL-60 cells [2]; 5 μM, Table 5): 54.29 ± 0.01
- Cell Cycle Distribution G0/G1 (HL-60 cells [2]; 5 μM, Table 10): 41.42 ± 0.14
- Cell Cycle Distribution G2/M (HL-60 cells [2]; 5 μM, Table 10): 8.15 ± 0.49
- Cell Cycle Distribution S (HL-60 cells [2]; 5 μM, Table 10): 50.73 ± 0.42
- Cell Cycle Distribution G0/G1 (HL-60 cells [2]; 10 μM, Table 5): 53.84 ± 0.45
- Cell Cycle Distribution G2/M (HL-60 cells [2]; 10 μM, Table 5): 5.73 ± 1.50
- Cell Cycle Distribution S (HL-60 cells [2]; 10 μM, Table 5): 40.44 ± 1.06
- Cell Cycle Distribution G0/G1 (HL-60 cells [2]; 10 μM, Table 10): 50.36 ± 1.06
- Cell Cycle Distribution G2/M (HL-60 cells [2]; 10 μM, Table 10): 2.75 ± 0.57
- Cell Cycle Distribution S (HL-60 cells [2]; 10 μM, Table 10): 46.88 ± 0.28
- Cell Cycle Distribution G0/G1 (HL-60 cells [2]; 25 μM, Table 5): 61.96 ± 3.55
- Cell Cycle Distribution G2/M (HL-60 cells [2]; 25 μM, Table 5): 5.93 ± 0.49
- Cell Cycle Distribution S (HL-60 cells [2]; 25 μM, Table 5): 32.12 ± 4.04
- Cell Cycle Distribution G0/G1 (HL-60 cells [2]; 25 μM, Table 10): 66.18 ± 0.71
- Cell Cycle Distribution G2/M (HL-60 cells [2]; 25 μM, Table 10): 2.77 ± 0.85
- Cell Cycle Distribution S (HL-60 cells [2]; 25 μM, Table 10): 31.06 ± 0.99
- Cell Cycle Distribution G0/G1 (HL-60 cells [2]; 50 μM, Table 5): 62.37 ± 1.85
- Cell Cycle Distribution G2/M (HL-60 cells [2]; 50 μM, Table 5): 6.44 ± 0.08
- Cell Cycle Distribution S (HL-60 cells [2]; 50 μM, Table 5): 31.20 ± 1.76
- Cell Cycle Distribution G0/G1 (HL-60 cells [2]; 50 μM, Table 10): 64.40 ± 0.49
- Cell Cycle Distribution G2/M (HL-60 cells [2]; 50 μM, Table 10): 7.67 ± 0.57
- Cell Cycle Distribution S (HL-60 cells [2]; 50 μM, Table 10): 27.93 ± 0.35
- Cell Cycle Distribution G0/G1 (HL-60 cells [2]; 100 μM, Table 5): 65.00 ± 3.41
- Cell Cycle Distribution G2/M (HL-60 cells [2]; 100 μM, Table 5): 4.18 ± 0.33
- Cell Cycle Distribution S (HL-60 cells [2]; 100 μM, Table 5): 30.81 ± 3.08
- Cell Cycle Distribution G0/G1 (HL-60 cells [2]; 100 μM, Table 10): 62.05 ± 0.14
- Cell Cycle Distribution G2/M (HL-60 cells [2]; 100 μM, Table 10): 7.35 ± 0.14
- Cell Cycle Distribution S (HL-60 cells [2]; 100 μM, Table 10): 30.60 ± 0.35
- Cell cycle arrest, in words (HL-60 cells [2]; 25-100 μM): significant G1 arrest
- AC50 (HT-29 cells [3]): > 100 µM
- AC50 (AGS cells; [5]): > 100 µg/mL
- AC50 (AGS cells; [6]): > 100 µM
- AC50 (HL-60 cells [4]; [5]): > 100 µg/mL
- AC50 (HL-60 cells [4]; [6]): > 100 µM
- AC50 (COLO205 cells; [5]): > 100 µg/mL
- AC50 (COLO205 cells; [6]): > 100 µM
